For 23 compounds, Ki and IC50 results are on record in patent US8952177B2 (Janssen Pharmaceutica NV, priority 2013, dated 2015).

For one assay, the target named is human FLAP (Homo sapiens (Human), UniProt P20292). Description: FLAP binding assay (HTRF format). Conditions: human FLAP-containing Sf-9 membranes, 25 nM HTRF ligand, 2 h; average of runs; read-out: FLAP Binding wild type HTRF Ki. Summed up: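 His6-tagged human FLAP in Sf-9 membranes competed against a FITC-labelled indole FLAP modulator in HTRF format; 2 h reaction, read as HTRF ratio. Ki and IC50 from averaged duplicate ratios over 2–20 runs of two plates each; parenthetical numbers give run count.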
Chain of human FLAP (P20292 whole entry): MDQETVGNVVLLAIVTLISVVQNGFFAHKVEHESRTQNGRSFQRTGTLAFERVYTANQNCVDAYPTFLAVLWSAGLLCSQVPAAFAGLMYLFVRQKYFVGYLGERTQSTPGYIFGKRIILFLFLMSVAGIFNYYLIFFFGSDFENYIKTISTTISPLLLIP
A general note: Time-resolved FRET reads energy transfer from a long-lived donor to a nearby acceptor.

In assay [1] the test system is leukotriene pathway in human whole blood (LTB4). Description: Human whole blood assay (LTB4 after calcium ionophore A23187 stimulation). It is filed as cell-based. Conditions: human whole blood diluted 1:1 in RPMI, 15 min pre-incubation, A23187 7 μg/mL for 30 min at 37° Celsius. Summed up: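 Heparinised human whole blood, diluted 1:1 in RPMI, was preincubated with compound for 15 min at 37° C. before stimulation with A23187 (7 μg/mL) for 30 min. Plasma LTB4 was measured by immunoassay kit and IC50 obtained by 4-parameter fit; single replicate per plate, blood from at least one donor.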

Where a name gives a salt, the structure may show the parent alone.

Broadly, the Ki is the equilibrium dissociation constant of an inhibitor or competing ligand from its target. What is called IC50 is the concentration at which inhibition is half-maximal.

On to `CCC(CC)(Cc1nc2ccc(OCc3ccn(C)n3)cc2n1Cc1ccc(-c2ccc(C(F)(F)F)cc2)cc1F)C(=O)O` [Example 188], for which the Ki on human FLAP amounted to 12 nM. For the same compound, in assay [1], the IC50 came out at 550 nM.

Take `Cn1ccc(COc2ccc3nc([C@@H]4CCCC[C@@H]4C(=O)O)n(Cc4ccc(OC(F)(F)F)cc4Br)c3c2)n1` (racemic) [Example 104, racemic cis-2-{1-[2-Bromo-4-(trifluoromethoxy)benzyl]-6-[(1-methyl-1H-pyrazol-3-yl)methoxy]-1H-benzimidazol-2-yl}cyclohexanecarboxylic acid as the HCl salt]: the inhibition constant (Ki) at human FLAP came to 30 nM. Also, the IC50 in assay [1] (Homo sapiens) stood at 690 nM.

`Cn1ccc(COc2ccc3nc([C@@H]4CCCC[C@@H]4C(=O)O)n(Cc4ccc(N5CC(F)(F)C5)cc4)c3c2)n1` (racemic) [Example 89, racemic cis-2-{1-[4-(3,3-Difluoroazetidin-1-yl)benzyl]-6-[(1-methyl-1H-pyrazol-3-yl)methoxy]-1H-benzimidazol-2-yl}cyclohexanecarboxylic acid]: on human FLAP, the Ki came out at 32 nM. The concentration for half-maximal inhibition (IC50) in assay [1] (Homo sapiens) came out at 3610 nM.

With `CCC(CC)(Cc1nc2ccc(OCc3ccc(C)cn3)cc2n1Cc1ccc(OC(F)(F)F)cc1C)C(=O)O` [Example 105], the inhibitory constant (Ki) on human FLAP is 40 nM. Further, the IC50 in assay [1] (Homo sapiens) was 6250 nM.

Take `Cn1cc(Cl)c(COc2ccc3nc([C@@H]4CCCC[C@@H]4C(=O)O)n(Cc4ccc(N5CCCCC5)cc4)c3c2)n1` (racemic) [Example 82, racemic cis-2-{6-[(4-Chloro-1-methyl-1H-pyrazol-3-yl)methoxy]-1-(4-piperidin-1-ylbenzyl)-1H-benzimidazol-2-yl}cyclohexanecarboxylic acid]: on human FLAP, the inhibitory constant (Ki) was determined as 7.9 nM. Besides, the IC50 in assay [1] (Homo sapiens) was 170 nM.

For `Cc1cnc(COc2ccc3nc(CC(C)(C)C(=O)O)n(Cc4ccc(N5CC(C(F)(F)F)C5)cc4F)c3c2)c(F)c1` [Example 183, 3-(6-[(3-Fluoro-5-methylpyridin-2-yl)methoxy]-1-{2-fluoro-4-[3-(trifluoromethyl)azetidin-1-yl]benzyl}-1H-benzimidazol-2-yl)-2,2-dimethylpropanoic acid], the Ki at human FLAP worked out at 13 nM. The half-inhibitory concentration (IC50) in assay [1] (Homo sapiens) came to 880 nM.

`CCC(CC)(Cc1nc2ccc(OCc3ccc(C)cn3)cc2n1Cc1ccc(Br)cc1)C(=O)O` [Example 8, 2-({1-(4-Bromobenzyl)-6-[(5-methylpyridin-2-yl)methoxy]-1H-benzimidazol-2-yl}methyl)-2-ethylbutanoic acid as the TFA salt]: the Ki on human FLAP worked out at 10 nM. Besides, in assay [1] (Homo sapiens), the IC50 was 2320 nM.

In the case of `Cn1cc(Cl)c(COc2ccc3nc([C@@H]4CCCC[C@@H]4C(=O)O)n(Cc4ccc(N5CCC(F)CC5)cc4)c3c2)n1` (racemic) [Example 87, racemic cis-2-{6-[(4-Chloro-1-methyl-1H-pyrazol-3-yl)methoxy]-1-[4-(4-fluoropiperidin-1-yl)benzyl]-1H-benzimidazol-2-yl}cyclohexanecarboxylic acid], on human FLAP, the Ki is 15 nM. The IC50 in assay [1] (Homo sapiens) stood at 1780 nM.

For the compound `Cn1ccc(COc2cc(F)c3nc([C@@H]4CCCC[C@@H]4C(=O)O)n(Cc4ccc(N5CCCCC5)cc4)c3c2)n1` (racemic) [Example 169, racemic cis-2-{4-Fluoro-6-[(1-methyl-1H-pyrazol-3-yl)methoxy]-1-(4-piperidin-1-ylbenzyl)-1H-benzimidazol-2-yl}cyclohexanecarboxylic acid as the HCl salt], the inhibition constant (Ki) on human FLAP was determined as 12 nM. Besides, the half-inhibitory concentration (IC50) in assay [1] (Homo sapiens) came to 1220 nM.

For the compound `Cc1ccc(COc2ccc3nc([C@H]4CCCC[C@H]4C(=O)O)n(Cc4c(F)cc(-c5ccc(C(F)(F)F)cc5)cc4F)c3c2)nc1` (racemic) [Example 138, racemic cis-2-(1-{[3,5-Difluoro-4′-(trifluoromethyl)biphenyl-4-yl]methyl}-6-[(5-methylpyridin-2-yl)methoxy]-1H-benzimidazol-2-yl)cyclohexanecarboxylic acid], the Ki on human FLAP came to 2.5 nM. In addition, in assay [1] (Homo sapiens), the half-inhibitory concentration (IC50) was found to be 97 nM.

For `CCC(CC)(Cc1nc2ccc(OCc3ccc(C)cn3)cc2n1Cc1ccc(OC(F)(F)F)cc1F)C(=O)O` [Example 23, 2-Ethyl-2-({1-[2-fluoro-4-(trifluoromethoxy)benzyl]-6-[(5-methylpyridin-2-yl)methoxy]-1H-benzimidazol-2-yl}methyl)butanoic acid], the Ki on human FLAP amounted to 18 nM. Also, in assay [1] (Homo sapiens), the IC50 was determined as 910 nM.

With `Cc1ccc(COc2ccc3nc([C@H]4CCCC[C@H]4C(=O)O)n(Cc4ccc(-c5ncc(Cl)cn5)cc4)c3c2)nc1` (racemic) [Example 80, racemic cis-2-{1-[4-(5-Chloropyrimidin-2-yl)benzyl]-6-[(5-methylpyridin-2-yl)methoxy]-1H-benzimidazol-2-yl}cyclohexanecarboxylic acid], at human FLAP, the Ki is 3.3 nM. In addition, the half-maximal inhibitory concentration (IC50) in assay [1] (Homo sapiens) was 300 nM.

With `Cc1ccc(Cn2c(C3[C@@H](C(=O)O)C3(C)C)nc3c(F)cc(OCc4ccc(C)cn4)cc32)cc1` (mixture of isomers) [Example 64, racemic cis-3-{4-Fluoro-1-(4-methylbenzyl)-6-[(5-methylpyridin-2-yl)methoxy]-1H-benzimidazol-2-yl}-2,2-dimethylcyclopropanecarboxylic acid as the TFA salt], the Ki at human FLAP is 290 nM. For the same compound, the IC50 in assay [1] (Homo sapiens) was 3280 nM.

Take `CCC(CC)(Cc1nc2ccc(OCc3ccn(C)n3)cc2n1Cc1ccc(N2CCC(C(F)(F)F)CC2)cc1)C(=O)O` [Example 190, 2-ethyl-2-((6-((1-methyl-1H-pyrazol-3-yl)methoxy)-1-(4-(4-(trifluoromethyl)piperidin-1-yl)benzyl)-1H-benzo[d]imidazol-2-yl)methyl)butanoic acid]: the Ki at human FLAP came out at 210 nM. Also, the 50% inhibitory concentration (IC50) in assay [1] (Homo sapiens) was found to be 930 nM.

For the compound `Cn1ccc(COc2cc(F)c3nc([C@H]4CCCC[C@H]4C(=O)O)n(Cc4ccc(OC(F)(F)F)cc4F)c3c2)n1` (racemic) [Example 96, racemic cis-2-{4-Fluoro-1-[2-fluoro-4-(trifluoromethoxy)benzyl]-6-[(1-methyl-1H-pyrazol-3-yl)methoxy]-1H-benzimidazol-2-yl}cyclohexanecarboxylic acid as the HCl salt], at human FLAP, the inhibitory constant (Ki) amounted to 7 nM. The half-maximal inhibitory concentration (IC50) in assay [1] (Homo sapiens) turned out to be 810 nM.

For the compound `CCC(CC)(Cc1nc2ccc(OCc3ncc(C)cc3F)cc2n1Cc1ccc(N2CCC(C)CC2)cc1F)C(=O)O` [Example 181, 2-Ethyl-2-({1-[2-fluoro-4-(4-methylpiperidin-1-yl)benzyl]-6-[(3-fluoro-5-methylpyridin-2-yl)methoxy]-1H-benzimidazol-2-yl}methyl)butanoic acid], the inhibition constant Ki on human FLAP stood at 5.2 nM. In addition, the IC50 in assay [1] (Homo sapiens) came out at 48 nM.

Take `Cn1ccc(COc2ccc3nc([C@@H]4[C@H](C(=O)O)C4(C)C)n(Cc4ccc(Br)cc4)c3c2)n1` (racemic) [Example 134, racemic cis-3-{1-(4-Bromobenzyl)-6-[(1-methyl-1H-pyrazol-3-yl)methoxy]-1H-benzimidazol-2-yl}-2,2-dimethylcyclopropanecarboxylic acid]: the Ki on human FLAP was about 500 nM. For the same compound, the IC50 in assay [1] (Homo sapiens) came to 860 nM.

As to `CCC(CC)(Cc1nc2ccc(OCc3ccn(C)n3)cc2n1Cc1ccc(-c2ccc(C(F)(F)F)cc2)cc1F)C(=O)O` [Example 187], the Ki on human FLAP turned out to be 7.3 nM. In addition, the IC50 in assay [1] (Homo sapiens) was determined as 360 nM.

For the compound `Cc1ccc(COc2ccc3nc([C@@H]4CCCC[C@@H]4C(=O)O)n(Cc4ccc(OC(F)(F)F)cc4Cl)c3c2)nc1` (racemic) [Example 101, racemic cis-2-{1-[2-Chloro-4-(trifluoromethoxy)benzyl]-6-[(5-methylpyridin-2-yl)methoxy]-1H-benzimidazol-2-yl}cyclohexanecarboxylic acid as the HCl salt], the Ki on human FLAP is 21 nM. In addition, in assay [1] (Homo sapiens), the IC50 amounted to 900 nM.

As for `Cn1ccc(COc2ccc3nc([C@@H]4[C@H](C(=O)O)C4(C)C)n(Cc4ccc(OC(F)(F)F)cc4)c3c2)n1` (racemic) [Example 122, racemic cis-2,2-Dimethyl-3-{6-[(1-methyl-1H-pyrazol-3-yl)methoxy]-1-[4-(trifluoromethoxy)benzyl]-1H-benzimidazol-2-yl}cyclopropanecarboxylic acid], at human FLAP, the Ki was about 830 nM. In addition, the IC50 in assay [1] (Homo sapiens) worked out at 3400 nM.

`Cn1cc(F)c(COc2ccc3nc([C@@H]4CCCC[C@@H]4C(=O)O)n(Cc4ccc(OC(F)(F)F)cc4F)c3c2)n1` (racemic) [Example 85, racemic cis-2-{6-[(4-Fluoro-1-methyl-1H-pyrazol-3-yl)methoxy]-1-[2-fluoro-4-(trifluoromethoxy)benzyl]-1H-benzimidazol-2-yl}cyclohexanecarboxylic acid]: at human FLAP, the Ki is 1.4 nM. Moreover, the IC50 in assay [1] (Homo sapiens) was found to be 680 nM.

For the compound `Cc1cnc(COc2ccc3nc(CC(C)(C)C(=O)O)n(Cc4ccc(-c5ccc(C(F)(F)F)cc5)cc4)c3c2)c(F)c1` [Example 142, 3-(6-[(3-Fluoro-5-methylpyridin-2-yl)methoxy]-1-{[4′-(trifluoromethyl)biphenyl-4-yl]methyl}-1H-benzimidazol-2-yl)-2,2-dimethylpropanoic acid], the inhibition constant (Ki) at human FLAP turned out to be 7.4 nM. Besides, the half-inhibitory concentration (IC50) in assay [1] (Homo sapiens) was 980 nM.

As to `Cn1cc(Cl)c(COc2ccc3nc([C@@H]4CCCC[C@@H]4C(=O)O)n(Cc4ccc(OC(F)(F)F)cc4F)c3c2)n1` (racemic) [Example 83, racemic cis-2-{6-[(4-Chloro-1-methyl-1H-pyrazol-3-yl)methoxy]-1-[2-fluoro-4-(trifluoromethoxy)benzyl]-1H-benzimidazol-2-yl}cyclohexanecarboxylic acid], the Ki on human FLAP was found to be 4.2 nM. In addition, the 50% inhibitory concentration (IC50) in assay [1] (Homo sapiens) was determined as 350 nM.
